# From article PMC10279527, “Structural basis of metabolite transport by the chloroplast outer envelope channel OEP21” (Nature Structural & Molecular Biology, 2023)
# Molecular target: OEP21 (Pisum sativum, UniProt Q9SM57)
# Test: CD-detected thermal melting of OEP21 in presence of metabolites
# Format: binding, garden pea
# Parameters: made in house
# Settings: for raw CD / rel CD: 500 uM; for Melting point: ED Fig. 4a
# OEP21, sequence (Q9SM57 whole entry): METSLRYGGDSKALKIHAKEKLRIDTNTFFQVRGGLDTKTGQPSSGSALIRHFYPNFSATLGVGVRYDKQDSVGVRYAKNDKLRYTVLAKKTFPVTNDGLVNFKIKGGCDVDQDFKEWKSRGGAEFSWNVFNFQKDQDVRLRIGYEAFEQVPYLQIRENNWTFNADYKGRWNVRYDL
compound,measurement,setting,value
"O=C[C@H](O)COP(=O)(O)O [GAP, D-glyceraldehyde-3-phosphate]",raw CD,22.5 °C,-23.3707
same,rel CD,22.5 °C,0.97
same,raw CD,23 °C,-23.5919
same,rel CD,23 °C,0.9806
same,raw CD,23.5 °C,-24.399
same,rel CD,23.5 °C,1.019
same,raw CD,24 °C,-24.3596
same,rel CD,24 °C,1.017
same,raw CD,25 °C,-24.3798
same,rel CD,25 °C,1.018
same,raw CD,26 °C,-24.239
same,rel CD,26 °C,1.011
same,raw CD,27 °C,-24.36
same,rel CD,27 °C,1.017
same,raw CD,28 °C,-24.2279
same,rel CD,28 °C,1.011
same,raw CD,28.5 °C,-24.3095
same,rel CD,28.5 °C,1.015
same,raw CD,29 °C,-23.5401
same,rel CD,29 °C,0.9781
same,raw CD,30 °C,-23.385
same,rel CD,30 °C,0.9707
same,raw CD,31 °C,-24.0555
same,rel CD,31 °C,1.003
same,raw CD,32 °C,-24.3068
same,rel CD,32 °C,1.015
same,raw CD,33 °C,-24.4089
same,rel CD,33 °C,1.019
same,raw CD,34 °C,-23.805
same,rel CD,34 °C,0.9907
same,raw CD,35 °C,-24.5097
same,rel CD,35 °C,1.024
same,raw CD,36 °C,-24.0481
same,rel CD,36 °C,1.002
same,raw CD,37 °C,-23.8199
same,rel CD,37 °C,0.9914
same,raw CD,38 °C,-23.8252
same,rel CD,38 °C,0.9917
same,raw CD,39 °C,-23.7051
same,rel CD,39 °C,0.986
same,raw CD,68 °C,-6.585
same,rel CD,68 °C,0.1707
same,raw CD,68.5 °C,-6.193
same,rel CD,68.5 °C,0.1521
same,raw CD,69 °C,-6.288
same,rel CD,69 °C,0.1566
same,raw CD,70 °C,-5.958
same,rel CD,70 °C,0.1409
same,raw CD,70.5 °C,-5.84
same,rel CD,70.5 °C,0.1352
same,raw CD,71 °C,-5.586
same,rel CD,71 °C,0.1232
same,raw CD,71.5 °C,-5.682
same,rel CD,71.5 °C,0.1277
same,raw CD,72 °C,-5.192
same,rel CD,72 °C,0.1044
same,raw CD,73 °C,-5.167
same,rel CD,73 °C,0.1032
same,raw CD,74 °C,-4.493
same,rel CD,74 °C,0.07111
same,raw CD,74.5 °C,-4.638
same,rel CD,74.5 °C,0.078
same,raw CD,75 °C,-4.942
same,rel CD,75 °C,0.09249
same,raw CD,75.5 °C,-4.618
same,rel CD,75.5 °C,0.07706
same,raw CD,76 °C,-4.509
same,rel CD,76 °C,0.07187
same,raw CD,77 °C,-4.747
same,rel CD,77 °C,0.0832
same,raw CD,77.5 °C,-4.466
same,rel CD,77.5 °C,0.06981
same,raw CD,78 °C,-4.843
same,rel CD,78 °C,0.08778
same,raw CD,78.5 °C,-4.206
same,rel CD,78.5 °C,0.05742
same,raw CD,79 °C,-3.995
same,rel CD,79 °C,0.0474
same,raw CD,79.5 °C,-4.497
same,rel CD,79.5 °C,0.07129
same,raw CD,80 °C,-4.058
same,rel CD,80 °C,0.05036
same,raw CD,81 °C,-4.059
same,rel CD,81 °C,0.05042
same,raw CD,82 °C,-4.217
same,rel CD,82 °C,0.05795
same,raw CD,82.5 °C,-4.026
same,rel CD,82.5 °C,0.04886
same,raw CD,83 °C,-4.494
same,rel CD,83 °C,0.07116
same,raw CD,83.5 °C,-4.549
same,rel CD,83.5 °C,0.07377
same,raw CD,84 °C,-4.1838
same,rel CD,84 °C,0.05637
same,raw CD,85 °C,-3.693
same,rel CD,85 °C,0.03299
same,raw CD,86 °C,-3.539
same,rel CD,86 °C,0.02569
same,raw CD,87 °C,-3.736
same,rel CD,87 °C,0.03505
same,raw CD,87.5 °C,-3.636
same,rel CD,87.5 °C,0.03029
same,raw CD,88 °C,-3.641
same,rel CD,88 °C,0.03053
same,raw CD,88.5 °C,-3.975
same,rel CD,88.5 °C,0.04642
same,raw CD,89 °C,-3.567
same,rel CD,89 °C,0.02702
same,raw CD,90 °C,-3.821
same,rel CD,90 °C,0.03908
same,raw CD,90.5 °C,-3.627
same,rel CD,90.5 °C,0.02984
same,raw CD,91 °C,-4.011
same,rel CD,91 °C,0.04814
same,raw CD,91.5 °C,-3.609
same,rel CD,91.5 °C,0.02901
same,raw CD,92 °C,-3.4371
same,rel CD,92 °C,0.02081
same,raw CD,93 °C,-3.657
same,rel CD,93 °C,0.03128
same,raw CD,94 °C,-3.717
same,rel CD,94 °C,0.03414
same,raw CD,95 °C,-3.854
same,rel CD,95 °C,0.04065
same,raw CD,96 °C,-3.335
same,rel CD,96 °C,0.01596
same,raw CD,97 °C,-3.649
same,rel CD,97 °C,0.0309
same,raw CD,98 °C,-3.661
same,rel CD,98 °C,0.03146
same,raw CD,99 °C,-3.437
same,rel CD,99 °C,0.0208
same,raw CD,100 °C,-3.04
same,rel CD,100 °C,0.001918
same,Melting point,"OEP21 with 0.5 mM metabolite, CD at 215 nm, Apo 58.5",59.2 ｡C
same,Melting point,OEP21 with 1 mM GAP,60.2 ｡C
